Assays:
bedstraw = assay: Test B pre/postemergence bedstraw; format: in vivo, Galium aparine; details: Preemergence
How it was run: (§1)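 Test chemicals in a non-phytotoxic solvent mixture with surfactant were sprayed preemergence onto planted seeds and postemergence onto plants 2 to 18 cm tall (1- to 4-leaf stage). After twelve to sixteen days in a greenhouse, injury was visually rated against untreated controls from 0 (no effect) to 10 (complete control).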

blackgrass = assay: Test B pre/postemergence blackgrass; format: in vivo, Alopecurus myosuroides
How it was run: as §1

surinam grass = assay: Test B pre/postemergence surinam grass; format: in vivo, Brachiaria decumbens
How it was run: as §1

cocklebur = assay: Test B pre/postemergence cocklebur; format: in vivo, Xanthium strumarium
How it was run: as §1

corn = assay: Test B pre/postemergence corn; format: in vivo, Zea mays
How it was run: as §1

crabgrass = assay: Test B pre/postemergence crabgrass; format: in vivo, Digitaria sanguinalis
How it was run: as §1

giant foxtail = assay: Test B pre/postemergence giant foxtail; format: in vivo, Setaria faberii
How it was run: as §1

morningglory = assay: Test B pre/postemergence morningglory; format: in vivo, Ipomoea hederacea
How it was run: as §1

pigweed = assay: Test B pre/postemergence pigweed; format: in vivo, Amaranthus retroflexus
How it was run: as §1

rape = assay: Test B pre/postemergence rape; format: in vivo, Brassica napus
How it was run: as §1

soybean = assay: Test B pre/postemergence soybean; format: in vivo, Glycine max
How it was run: as §1

sugar beet = assay: Test B pre/postemergence sugar beet; format: in vivo, Beta vulgaris
How it was run: as §1

velvetleaf = assay: Test B pre/postemergence velvetleaf; format: in vivo, Abutilon theophrasti
How it was run: as §1

wheat = assay: Test B pre/postemergence wheat; format: in vivo, Triticum aestivum
How it was run: as §1

wild oat = assay: Test B pre/postemergence wild oat; format: in vivo, Avena fatua
How it was run: as §1

purple nutsedge = assay: Test B pre/postemergence purple nutsedge; format: in vivo, Cyperus rotundus
How it was run: as §1

rice = assay: Test B flood test rice; format: in vivo, Oryza sativa
How it was run: (§2)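 Read-out is a visual response score from 0 (no effect) to 10 (complete control), assigned by comparison with untreated controls. Treatment was applied at the 2-leaf stage, and plants stayed in the greenhouse for twelve to sixteen days before scoring.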

smallflower flatsedge = assay: Test B flood test smallflower flatsedge; format: in vivo, Cyperus difformis
How it was run: as §2

duck salad = assay: Test B flood test duck salad; format: in vivo, Heteranthera limosa
How it was run: as §2

bamyardgrass = assay: Test B flood test barnyardgrass; format: in vivo, Echinochloa crus-galli
How it was run: as §2

[1] = Preemergence, Rate 62 g/ha, scale of 0 to 10 where 0 is no effect and 10 is complete control
[2] = Preemergence, Rate 125 g/ha, scale of 0 to 10 where 0 is no effect and 10 is complete control
[3] = Preemergence, Rate 250 g/ha, scale 0 to 10 (0 no effect, 10 complete control)
[4] = Preemergence, Rate 500 g/ha, scale of 0 to 10 where 0 is no effect and 10 is complete control
[5] = Rate 62 g/ha, flood test species, Pre-emergence, visual evaluation after twelve to sixteen days
[6] = Rate 125 g/ha, under heading Pre-emergence, flood test species, visual evaluation after twelve to sixteen days
[7] = Rate 250 g/ha, Pre-emergence (flood test species), scale 0 to 10, 0 is no effect, 10 is complete control
[8] = Rate 500 g/ha, Pre-emergence section of Table B, 0 to 10 scale (0 no effect, 10 complete control)
[9] = Postemergence, Rate 125 g/ha, scale 0 to 10, 0 is no effect, 10 is complete control
[10] = Postemergence, Rate 250 g/ha, scale 0 to 10, 0 is no effect, 10 is complete control
[11] = Postemergence, Rate 500 g/ha, scale of 0 to 10 where 0 is no effect and 10 is complete control
[12] = Preemergence, Rate 62 g/ha, scale 0 to 10 (0 no effect, 10 complete control)
[13] = Preemergence, Rate 250 g/ha, scale of 0 to 10 where 0 is no effect and 10 is complete control
[14] = Preemergence, Rate 500 g/ha, scale 0 to 10, 0 is no effect, 10 is complete control
[15] = Rate 62 g/ha, Postemergence, scale of 0 to 10 where 0 is no effect and 10 is complete control
[16] = Preemergence, Rate 250 g/ha, scale 0 to 10, 0 is no effect, 10 is complete control
[17] = Postemergence section (flood test species), Rate 500 g/ha, scale of 0 to 10 where 0 is no effect and 10 is complete control
[18] = flood test species, listed under Postemergence, Rate 250 g/ha, scale 0 to 10, 0 is no effect, 10 is complete control
[19] = Postemergence (flood test), Rate 125 g/ha, scale 0 to 10, 0 is no effect, 10 is complete control
[20] = Rate 62 g/ha, Postemergence (flood test species), scale of 0 to 10 where 0 is no effect and 10 is complete control

## CC(C)N(C(=O)n1oc(=O)n(C(C)C2CC2)c1=O)c1ccccc1 (stereo not drawn) [Compound 699]
bedstraw; Rate 62 g/ha, scale of 0 to 10 where 0 is no effect and 10 is complete control
  Bedstraw plant response rating: 0
bedstraw; Rate 250 g/ha, scale 0 to 10 (0 no effect, 10 complete control)
  Plant response rating, Bedstraw: 0
bedstraw; Rate 500 g/ha, scale of 0 to 10 where 0 is no effect and 10 is complete control
  Plant response rating, Bedstraw: 0
blackgrass; [1]
  Blackgrass plant response rating: 8
blackgrass; [2]
  Plant response rating, Blackgrass: 10
blackgrass; [3]
  Plant response rating, Blackgrass: 10
blackgrass; [4]
  Plant response rating, Blackgrass: 10
Surinam grass; [1]
  B. signalgrass plant response rating: 8
Surinam grass; [2]
  Plant response rating, B. signalgrass: 9
Surinam grass; [3]
  Plant response rating, B. signalgrass: 9
Surinam grass; [4]
  Plant response rating, B. signalgrass: 10
cocklebur; [1]
  Cocklebur plant response rating: 0
cocklebur; [2]
  Plant response rating, Cocklebur: 0
cocklebur; [3]
  Plant response rating, Cocklebur: 0
cocklebur; [4]
  Plant response rating, Cocklebur: 0
corn; [1]
  Corn plant response rating: 3
corn; [2]
  Plant response rating, Corn: 6
corn; [3]
  Plant response rating, Corn: 8
crabgrass; [1]
  Crabgrass plant response rating: 10
crabgrass; [2]
  Plant response rating, Crabgrass: 10
crabgrass; [3]
  Plant response rating, Crabgrass: 10
Giant foxtail; [1]
  Giant foxtail plant response rating: 10
Giant foxtail; [2]
  Plant response rating, Giant foxtail: 10
morningglory; [1]
  Morningglory plant response rating: 2
morningglory; [2]
  Plant response rating, Morningglory: 4
pigweed; [1]
  Redroot pigweed plant response rating: 3
pigweed; [2]
  Plant response rating, Redroot pigweed: 3
rape; [1]
  Rape plant response rating: 0
rape; [2]
  Plant response rating, Rape: 2
soybean; [1]
  Soybean plant response rating: 0
soybean; [2]
  Plant response rating, Soybean: 2
Sugar beet; [1]
  Sugarbeets plant response rating: 3
Sugar beet; [2]
  Plant response rating, Sugarbeets: 4
velvetleaf; [1]
  Velvetleaf plant response rating: 0
velvetleaf; [2]
  Plant response rating, Velvetleaf: 2
wheat; [1]
  Wheat plant response rating: 0
wheat; [2]
  Plant response rating, Wheat: 3
Wild oat; [1]
  Wild oats plant response rating: 9
Wild oat; [2]
  Plant response rating, Wild oats: 10
Purple nutsedge; [1]
  Nutsedge plant response rating: 0
Purple nutsedge; [2]
  Plant response rating, Nutsedge: 0
rice; [5]
  Plant response rating, Rice (0 to 10 scale, 0 is no effect, 10 is complete control): 0
rice; [6]
  Rice plant response rating (0 to 10 scale, 0 is no effect, 10 is complete control): 0
rice; [7]
  Rice plant response rating: 5
rice; [8]
  Rice plant response rating: 4
Smallflower flatsedge; [5]
  Plant response rating, S. Flatsedge (0 to 10 scale, 0 is no effect, 10 is complete control): 6
Smallflower flatsedge; [6]
  S. Flatsedge plant response rating (0 to 10 scale, 0 is no effect, 10 is complete control): 7
Smallflower flatsedge; [7]
  S. Flatsedge plant response rating: 9
Smallflower flatsedge; [8]
  S. Flatsedge plant response rating: 8
Duck salad; [5]
  Plant response rating, Ducksalad (0 to 10 scale, 0 is no effect, 10 is complete control): 3
Duck salad; [6]
  Ducksalad plant response rating (0 to 10 scale, 0 is no effect, 10 is complete control): 8
Duck salad; [7]
  Ducksalad plant response rating: 9
Duck salad; [8]
  Ducksalad plant response rating: 9
bamyardgrass; [5]
  Plant response rating, Barnyardgrass (0 to 10 scale, 0 is no effect, 10 is complete control): 4
bamyardgrass; [6]
  Barnyardgrass plant response rating (0 to 10 scale, 0 is no effect, 10 is complete control): 4
bamyardgrass; [7]
  Barnyardgrass plant response rating: 8
bamyardgrass; [8]
  Barnyardgrass plant response rating: 8

## C=C(C)CCn1c(=O)on(C(=O)N(c2ccccc2)C(C)C)c1=O [Compound 418]
blackgrass; [9]
  Plant response rating, Blackgrass: 4
blackgrass; [10]
  Plant response rating, Blackgrass: 4
blackgrass; [11]
  Blackgrass plant response rating: 6
blackgrass; [12]
  Plant response rating, Blackgrass: 4
blackgrass; [2]
  Plant response rating, Blackgrass: 4
blackgrass; [13]
  Blackgrass plant response rating: 7
blackgrass; [14]
  Blackgrass plant response rating: 0
blackgrass; [15]
  Blackgrass plant response rating: 2
Surinam grass; [9]
  Plant response rating, B. signalgrass: 0
Surinam grass; [10]
  Plant response rating, B. signalgrass: 0
Surinam grass; [11]
  B. signalgrass plant response rating: 2
Surinam grass; [12]
  Plant response rating, B. signalgrass: 0
Surinam grass; [2]
  Plant response rating, B. signalgrass: 3
Surinam grass; [13]
  B. signalgrass plant response rating: 6
Surinam grass; [4]
  B. signalgrass plant response rating: 6
Surinam grass; [15]
  B. signalgrass plant response rating: 0
cocklebur; [9]
  Plant response rating, Cocklebur: 0
cocklebur; [10]
  Plant response rating, Cocklebur: 0
cocklebur; [11]
  Cocklebur plant response rating: 0
cocklebur; [12]
  Plant response rating, Cocklebur: 0
cocklebur; [2]
  Plant response rating, Cocklebur: 0
cocklebur; [16]
  Cocklebur plant response rating: 0
cocklebur; [14]
  Cocklebur plant response rating: 0
cocklebur; [15]
  Cocklebur plant response rating: 0
corn; [9]
  Plant response rating, Corn: 0
corn; [10]
  Plant response rating, Corn: 0
corn; [11]
  Corn plant response rating: 0
corn; [12]
  Plant response rating, Corn: 0
corn; [2]
  Plant response rating, Corn: 0
corn; [16]
  Corn plant response rating: 2
corn; [15]
  Corn plant response rating: 0
crabgrass; [9]
  Plant response rating, Crabgrass: 0
crabgrass; [10]
  Plant response rating, Crabgrass: 3
crabgrass; [11]
  Crabgrass plant response rating: 6
crabgrass; [12]
  Plant response rating, Crabgrass: 6
crabgrass; [2]
  Plant response rating, Crabgrass: 8
crabgrass; [16]
  Crabgrass plant response rating: 10
crabgrass; [14]
  Crabgrass plant response rating: 10
crabgrass; [15]
  Crabgrass plant response rating: 0
Giant foxtail; [9]
  Plant response rating, Giant foxtail: 0
Giant foxtail; [10]
  Plant response rating, Giant foxtail: 8
Giant foxtail; [11]
  Giant foxtail plant response rating: 9
Giant foxtail; [12]
  Plant response rating, Giant foxtail: 7
Giant foxtail; [2]
  Plant response rating, Giant foxtail: 8
Giant foxtail; [16]
  Giant foxtail plant response rating: 10
Giant foxtail; [14]
  Giant foxtail plant response rating: 10
Giant foxtail; [15]
  Giant foxtail plant response rating: 0
morningglory; [10]
  Plant response rating, Morningglory: 8
morningglory; [11]
  Morningglory plant response rating: 10
morningglory; [12]
  Plant response rating, Morningglory: 0
morningglory; [2]
  Plant response rating, Morningglory: 0
morningglory; [16]
  Morningglory plant response rating: 0
morningglory; [14]
  Morningglory plant response rating: 0
pigweed; [10]
  Plant response rating, Redroot pigweed: 0
pigweed; [11]
  Redroot pigweed plant response rating: 0
pigweed; [12]
  Plant response rating, Redroot pigweed: 2
pigweed; [2]
  Plant response rating, Redroot pigweed: 3
pigweed; [16]
  Redroot pigweed plant response rating: 8
pigweed; [14]
  Redroot pigweed plant response rating: 8
rape; [10]
  Plant response rating, Rape: 0
rape; [11]
  Rape plant response rating: 0
rape; [12]
  Plant response rating, Rape: 0
rape; [2]
  Plant response rating, Rape: 0
rape; [16]
  Rape plant response rating: 0
rape; [14]
  Rape plant response rating: 9
soybean; [10]
  Plant response rating, Soybean: 4
soybean; [11]
  Soybean plant response rating: 6
soybean; [12]
  Plant response rating, Soybean: 0
soybean; [2]
  Plant response rating, Soybean: 0
soybean; [16]
  Soybean plant response rating: 0
soybean; [14]
  Soybean plant response rating: 0
Sugar beet; [10]
  Plant response rating, Sugarbeets: 0
Sugar beet; [11]
  Sugarbeets plant response rating: 0
Sugar beet; [12]
  Plant response rating, Sugarbeets: 0
Sugar beet; [2]
  Plant response rating, Sugarbeets: 2
Sugar beet; [16]
  Sugarbeets plant response rating: 2
Sugar beet; [14]
  Sugarbeets plant response rating: 2
velvetleaf; [10]
  Plant response rating, Velvetleaf: 0
velvetleaf; [11]
  Velvetleaf plant response rating: 0
velvetleaf; [12]
  Plant response rating, Velvetleaf: 0
velvetleaf; [2]
  Plant response rating, Velvetleaf: 3
velvetleaf; [16]
  Velvetleaf plant response rating: 5
velvetleaf; [14]
  Velvetleaf plant response rating: 6
wheat; [11]
  Wheat plant response rating: 0
wheat; [12]
  Plant response rating, Wheat: 0
wheat; [2]
  Plant response rating, Wheat: 0
wheat; [16]
  Wheat plant response rating: 0
wheat; [14]
  Wheat plant response rating: 2
Wild oat; [11]
  Wild oats plant response rating: 3
Wild oat; [12]
  Plant response rating, Wild oats: 0
Wild oat; [2]
  Plant response rating, Wild oats: 0
Wild oat; [16]
  Wild oats plant response rating: 0
Wild oat; [14]
  Wild oats plant response rating: 0
Purple nutsedge; [10]
  Plant response rating, Nutsedge: 0
Purple nutsedge; [11]
  Nutsedge plant response rating: 0
Purple nutsedge; [12]
  Plant response rating, Nutsedge: 0
Purple nutsedge; [2]
  Plant response rating, Nutsedge: 0
Purple nutsedge; [16]
  Nutsedge plant response rating: 0
Purple nutsedge; [14]
  Nutsedge plant response rating: 0
rice; [17]
  Rice plant response rating: 0
rice; [18]
  Plant response rating, Rice: 0
Smallflower flatsedge; [17]
  S. Flatsedge plant response rating: 4
Smallflower flatsedge; [18]
  Plant response rating, S. Flatsedge: 4
Duck salad; [19]
  Plant response rating, Ducksalad: 0
Duck salad; [17]
  Ducksalad plant response rating: 2
Duck salad; [20]
  Ducksalad plant response rating: 0
Duck salad; [18]
  Plant response rating, Ducksalad: 2
bamyardgrass; [19]
  Plant response rating, Barnyardgrass: 0
bamyardgrass; [17]
  Barnyardgrass plant response rating: 0
bamyardgrass; [20]
  Barnyardgrass plant response rating: 0
bamyardgrass; [18]
  Plant response rating, Barnyardgrass: 0

— US6737383B1, “Herbicidal oxadiazolidines” (priority 1999, dated 2004)
